Results from patent US8278459B2, “UV-filter compounds” (DSM IP Assets B.V., priority 2007, dated 2012).

Experiment: Skin binding experiment (pig ear skin, THF extraction, HPLC recovery)
Format: in vitro ADME
Conditions: for % UV filter bound to the skin: 2% (w) THF solution applied topically at 1 mg/cm^2, 32±1° C., duplicates
Description: The skin binding properties were determined by the following experiment. Skin samples (1 cm^2 each) were prepared by punching out from pig ear. The skin samples were placed in a 2 mL eppendorf plastic tube. The studied compounds were applied topically as a 2% (w) THF solution on the skin surface at a mean dose rate of 1 mg/cm^2. The samples were placed in a heatingblock and maintained at a normal skin temperature of 32±1° C. for the duration of the exposure period. At the end of the experiment, after 24 hours, respectively 72 h, each skin probe was extracted by shaking with 1000 μl of THF for 1 min and the resulting solution was analyzed by HPLC. The experiments were run in duplicates.
Compounds B and was tested for their skin-binding capacity, while compound A (described in Kawashita, Y; Nakamichi, N.; Kawabata, H.; Hayashi, M. Org. Lett. 2003, 5, 3713-3715) was used as a non-binding reference.
Skin fraction samples were injected into the HPLC system using DAD detection with the following conditions:
The % of UV filter bound to the skin was determined by calculation of the recovery rate using the following equation: […]

Row | % UV filter bound to the skin (After 24 h) [%] | % UV filter bound to the skin (After 72 h) [%] | adhesion to the skin (in words) (compared to the non-binding compound A) | SMILES
1 | 36.3 | 61.1 |  | Cc1ccc(-c2nc3ccccc3o2)cc1 [Compound A, reference compound]
2 | 96.6 | 100 | significant adhesion to the skin | O=C(CO)C(O)C(O)c1ccc(-c2nc3ccccc3o2)cc1 (centres unmarked) [Compound B, 4-(4-Benzoxazol-2-yl-phenyl)-1,3,4-trihydroxy-butan-2-one]
